Reference: patent publication US8440724B2, “Inhibiting neurotransmitter reuptake” (Mayo Foundation for Medical Education and Research, priority 2008, dated 2013)
Read-outs that look alike come from different tables or passages of the source.

What was measured:
[1] = biological target: T1, human serotonin transporter (hSERT) (Homo sapiens, UniProt P31645); assay: Radioligand binding to cloned hSERT, [3H]citalopram, HEK-293 cell membranes
T1 construct: expressed in transfected cells; host or cells: HEK-293, stably transfected
Description: (§1) HEK-293 cells expressing the recombinant hSERT or hDAT were incubated with Dulbecco's modified Eagles medium (MEM) supplemented with 0.1 mM nonessential amino acid solution for MEM, 5% v/v fetal bovine serum and 1 U/mL penicillin/streptomycin solution. Cells expressing the hNET transporter were incubated with Dulbecco's modified Eagles medium supplemented with 10% v/v fetal bovine serum and 100 U/mL penicillin/streptomycin solution and 2 mM L-glutamine. The cells were grown until 70-80% confluent on 175 cm^2 flasks in a humidified 10% CO2/90% air environment at 37° C., with the selecting antibiotic Geneticin sulfate at 250 μg/mL. The cells were incubated in 10% CO2, 90% air at 37° C. and 100% humidity.
(§2) Cell membranes containing hSERT, hNET, or hDAT were prepared from the cell lines to assay ligand binding for each of the transporters. […] The washed cells were incubated for 5 minutes at 37° C. in 10 mL solution 1 containing 100 mM ethylene glycol-bis N,N,N′,N′-tetraacetic acid (EGTA). The cells were then scraped from the flask surface with a rubber spatula, placed into a centrifuge tube, and collected by centrifugation at 1000×g for 5 minutes at 4° C. The resulting supernatant was discarded, and the cell pellet was resuspended in 0.5 to1.0 mL of the appropriate binding buffer (described below). The resuspended cell pellet was homogenized using a Polytron for 10 seconds at setting 6. The resulting homogenate was centrifuged at about 36,000×g for 10 minutes at 4° C. The supernatant was discarded, and the pellet was resuspended in the same volume of the appropriate binding buffer and centrifuged again. The supernatant was discarded, and the final pellet containing cell membranes was resuspended in the appropriate binding buffer and stored at −80° C. until use.
Radioligand binding assays for the indicated transporters were performed as follows. To assess binding to the cloned hSERT, cells expressing hSERT were homogenized in 50 mM Tris-HCl with 120 mM NaCl and 5 mM KCl (pH 7.4). The binding reaction consisted of 10 μg cell membrane protein, […] [^3H]citalopram (citalopram, [N-methyl-^3H], specific activity 79.0 Ci/mmol; PerkinElmer, Boston, Mass.), and varying concentrations of either unlabeled citalopram or the test compound. A reaction to determine non-specific binding consisted of 10 μg cell membrane protein, 0.5 nM [^3H]citalopram, and 1 μM final concentration of unlabeled citalopram. The reactions were incubated at 22° C. for 60 minutes. Following incubation, the reactions were terminated by rapid filtration through separate GF/B filter strips pretreated with 0.2% polyethylenimine in a 48-well Brandel cell harvester. The cell membrane-containing filter strips were then rinsed five times with ice-cold 0.9% NaCl. After rinsing, individual filters were cut from the strip and placed in a scintillation vial containing 6.5 mL of Redi-Safe (Beckman-Coulter, Fullerton, Calif.).
(§3) The program was modified to calculate the Hill coefficient (nH). Data are presented as geometric mean±S.E.M. of at least three independent experiments. One-component models and two-component models were compared using the root mean square error of each fit and the F test.

[2] = biological target: T2, human dopamine transporter (hDAT) (Homo sapiens, UniProt Q01959); assay: Radioligand binding to cloned hDAT, [3H]WIN35428, HEK-293 cell membranes
T2 construct: expressed in transfected cells; host or cells: HEK-293, stably transfected
Description: as §1, §2
To assess binding to the cloned hDAT, cells expressing hDAT were homogenized in 50 mM Tris-HCl with 120 mM NaCl (pH 7.4). The binding reaction contained 15 μg cell membrane protein, 1 nM [^3H]WIN35428 (WIN35428, [N-methyl-^3H], specific activity 85.9 Ci/mmol; PerkinElmer, Boston, Mass.), and varying concentrations of either unlabeled WIN35428 or the test compound. A reaction to determine non-specific binding contained 15 μg cell membrane protein, 1 nM [^3H]WIN35428, and 10 μM final concentration of unlabeled WIN35428. The reactions were incubated at 22° C. for 1 hour. Following incubation, the reactions were terminated by rapid filtration through separate GF/B filter strips pretreated with 0.2% polyethylenimine in a 48-well Brandel cell harvester. The cell membrane-containing filter strips were then rinsed five times with ice-cold 0.9% NaCl. After rinsing, individual filters were cut from the strip and placed in a scintillation vial containing 6.5 mL of Redi-Safe (Beckman-Coulter, Fullerton, Calif.).
as §3

hSERT, hNET, hDAT = assay: Human transporter binding: rank order and range of potency over the three transporters; conditions: for Potency (rank-order of potency of binding; S = hSERT, N = hNET, D = hDAT): from KD values; for Potency Range (difference between most potent and least potent binding): ratio of KD over hSERT, hNET, hDAT
Source text: as §3

[3] = tested on: human serotonin, norepinephrine and dopamine transporters; assay: Transport into cells expressing human transporters: rank order of potency, comparison with rat; assay type: cell-based; conditions: from Ki values; S = 5-HT, N = NE, D = DA
[4] = biological target: T3, rat serotonin transporter, synaptosomal preparations (Rattus norvegicus, UniProt P31652); assay: Inhibition of [3H]5-HT reuptake in rat brain synaptosomes (frontal cortex); assay type: biochemical; conditions: Geometric Mean ± SEM; rat brain synaptosomes; read-out: Inhibitor Constant (Ki), 5HT transport
T3 construct: from tissue; host or cells: rat frontal cortex synaptosomes (male Sprague-Dawley)
Description: (§4) The dissected tissues were separately homogenized in 20 volumes (cortical) or 40 volumes (striatal) of ice-cold, oxygenated HEPES buffer 0.32 M sucrose containing 11 mM glucose (pH 7.4) in a glass Potter-Elvehjem homogenizer with Teflon® pestle (8 strokes, 900 rpm). The homogenates were centrifuged at 1,000×g for 10 minutes. The resulting supernatant was decanted and further centrifuged at 20,000×g for 20 minutes at 4° C. […] The synaptosomal protein concentration was determined by using the BCA assay (Pierce Biotechnology Inc, Rockford, Ill.), according to the manufacturer's instructions. Synaptosomal protein (1.0-2.5 mg) was suspended in 1 mL oxygenated incubation buffer as defined above. Test amine compound was pre-incubated with the synaptosomal preparation for 30 minutes at 37° C. in a shaking water bath (80 oscillations/minute).

[5] = biological target: T4, rat norepinephrine transport, synaptosomal preparations (Rattus norvegicus, UniProt Q63380); assay: Inhibition of [3H]NE reuptake in rat brain synaptosomes (occipital cortex); assay type: biochemical; conditions: Geometric Mean ± SEM; rat brain synaptosomes; read-out: Inhibitor Constant (Ki), NE transport
T4 construct: from tissue; host or cells: rat occipital cortex synaptosomes (male Sprague-Dawley)
Description: as §4

[6] = biological target: T5, rat dopamine transporter, synaptosomal preparations (Rattus norvegicus, UniProt P23977); assay: Inhibition of [3H]DA reuptake in rat brain synaptosomes (striatum); assay type: biochemical; conditions: Geometric Mean ± SEM; rat brain synaptosomes; read-out: Inhibitor Constant (Ki), DA transport
T5 construct: and striatal tissues for transport of dopamine; from tissue; host or cells: rat striatum synaptosomes (male Sprague-Dawley)
Description: as §4

[7] = tested on: rat 5-HT, NE and DA transport, synaptosomal preparations; assay: Rat brain synaptosomal transport: rank order of potency; assay type: biochemical; conditions: from Ki values; S = 5HT, N = NE, D = DA
Description: as §4

[8] = biological target: human norepinephrine transporter (Homo sapiens, UniProt P23975); assay: Inhibition of [3H]NE transport into HEK-293 cells expressing the human transporter; conditions: read-out: Inhibitor Constant (Ki), NE transport; Geometric Mean ± SEM; HEK-293 whole cells
[9] = biological target: human dopamine transporter (Homo sapiens, UniProt Q01959); assay: Inhibition of [3H]DA transport into HEK-293 cells expressing the human transporter; conditions: read-out: Inhibitor Constant (Ki), DA transport; Geometric Mean ± SEM; HEK-293 whole cells
[10] = biological target: human serotonin transporter (Homo sapiens, UniProt P31645); assay: Inhibition of [3H]5-HT transport into HEK-293 cells expressing the human transporter; conditions: read-out: Inhibitor Constant (Ki), 5-HT transport; Geometric Mean ± SEM; HEK-293 whole cells
[11] = biological target: T6, human norepinephrine transporter (hNET) (Homo sapiens, UniProt P23975); assay: Radioligand binding to cloned hNET, [3H]nisoxetine, HEK-293 cell membranes
T6 construct: expressed in transfected cells; host or cells: HEK-293, stably transfected
Description: as §1, §2
To assess binding to the cloned hNET, cells expressing hNET were homogenized in 50 mM Tris-HCl with 300 mM NaCl and 5 mM KCl (pH 7.4). The binding reaction consisted of 5 μg cell membrane protein, 0.5 nM [^3H]nisoxetine (nisoxetine HCl, [N-methyl-^3H], specific activity 82.0 Ci/mmol; Amersham, Arlington Hts., Ill.), and varying concentrations of either unlabeled nisoxetine or the test compound. A reaction to determine non-specific binding consisted of 5 μg cell membrane protein, 0.5 nM [^3H]nisoxetine, and 1 μM final concentration of unlabeled nisoxetine. The reactions were incubated at 22° C. for 60 minutes. Following incubation, the reactions were terminated by rapid filtration through separate GF/B filter strips pretreated with 0.2% polyethylenimine in a 48-well Brandel cell harvester. The cell membrane-containing filter strips were then rinsed five times with ice-cold 0.9% NaCl. After rinsing, individual filters were cut from the strip and placed in a scintillation vial containing 6.5 mL of Redi-Safe (Beckman-Coulter, Fullerton, Calif.).
as §3

CYP2D6 = biological target: T7, CYP2D6 (Homo sapiens, UniProt P10635); assay: CYP2D6 inhibition, CYP2D6/AMMC kit (BD Biosciences), fluorescent substrate; assay type: in vitro ADME; conditions: recombinant human P450, AMMC substrate; read-out: Mean CYP2D6 (IC50)
T7 construct: purchased BD Biosciences 459200
Source text: This kit includes the use of a fluorescent P450 substrate (AMMC or 3-[2-(N,N-diethyl-N-methylamino)ethyl]-7-methoxy-4-methylcoumarin) and recombinant human P450.

hERG = hERG (Homo sapiens, UniProt Q12809); assay: hERG assay: block of rubidium ion (Rb+) efflux from cells expressing hERG
Description: Human “ether-a-go-go” (hERG) is an ion channel. Blockade of this channel can be predictive of causing cardiac arrhythmias in humans. hERG assays were performed to measure the ability of a compound to block rubidium ion (Rb^+) efflux from cells expressing hERG. Cells were pre-loaded with Rb^+, incubated with test compound, and then exposed to a buffer that opens the channel and allows the efflux of ions. Compounds as powder were dissolved in 100% DMSO to prepare 100 mM stock solutions. […] The stocks were stored at 23° C.
The range of doses for the test compounds was 30 nM through 100,000 nM.

Male Sprague-Dawley rats = assay: Forced swim test in rats; assay type: in vivo, rat; conditions: 5 mg/kg IP
Description: When rats are placed in a cylinder of water from which they cannot escape, they will remain immobile in the water for the majority of the test.
Water was changed between trials, and the procedure involved a pretest and a 5-minute test separated by 24 hours. During the pretest, rats (adapted to the experimental room for no less than one hour) were placed in the cylinder for 15 minutes. Following this initial exposure, the rats were dried with towels and transferred to a “drying cage” situated under a warming lamp. […] The following day, rats were transferred to the experimental room and acclimated for at least one hour.
The rat was considered immobile when floating motionless or making only those movements necessary to keep its head above the surface of the water. Scores for each behavior (swimming or immobility) were expressed as total counts per 5-minute session. Statistical analysis was performed using ANOVA followed by the Tukey test for post-hoc comparisons.

T1 sequence (P31645 whole entry): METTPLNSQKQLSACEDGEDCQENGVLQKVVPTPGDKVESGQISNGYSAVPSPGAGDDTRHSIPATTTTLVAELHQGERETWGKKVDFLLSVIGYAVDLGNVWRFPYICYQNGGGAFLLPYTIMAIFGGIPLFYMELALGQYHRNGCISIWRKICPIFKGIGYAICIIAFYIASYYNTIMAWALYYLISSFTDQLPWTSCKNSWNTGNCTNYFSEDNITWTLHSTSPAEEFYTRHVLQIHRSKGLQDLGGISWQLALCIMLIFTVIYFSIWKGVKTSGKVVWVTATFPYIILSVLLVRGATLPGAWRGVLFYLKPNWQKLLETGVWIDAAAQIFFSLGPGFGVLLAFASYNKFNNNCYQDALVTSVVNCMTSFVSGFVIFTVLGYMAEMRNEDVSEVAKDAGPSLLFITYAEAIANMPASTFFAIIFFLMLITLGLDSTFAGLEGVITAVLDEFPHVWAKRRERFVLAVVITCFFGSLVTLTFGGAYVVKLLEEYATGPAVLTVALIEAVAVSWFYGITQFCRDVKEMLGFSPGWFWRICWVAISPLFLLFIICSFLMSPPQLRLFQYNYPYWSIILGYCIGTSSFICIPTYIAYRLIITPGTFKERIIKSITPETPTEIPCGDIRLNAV
T2 sequence (Q01959 whole entry): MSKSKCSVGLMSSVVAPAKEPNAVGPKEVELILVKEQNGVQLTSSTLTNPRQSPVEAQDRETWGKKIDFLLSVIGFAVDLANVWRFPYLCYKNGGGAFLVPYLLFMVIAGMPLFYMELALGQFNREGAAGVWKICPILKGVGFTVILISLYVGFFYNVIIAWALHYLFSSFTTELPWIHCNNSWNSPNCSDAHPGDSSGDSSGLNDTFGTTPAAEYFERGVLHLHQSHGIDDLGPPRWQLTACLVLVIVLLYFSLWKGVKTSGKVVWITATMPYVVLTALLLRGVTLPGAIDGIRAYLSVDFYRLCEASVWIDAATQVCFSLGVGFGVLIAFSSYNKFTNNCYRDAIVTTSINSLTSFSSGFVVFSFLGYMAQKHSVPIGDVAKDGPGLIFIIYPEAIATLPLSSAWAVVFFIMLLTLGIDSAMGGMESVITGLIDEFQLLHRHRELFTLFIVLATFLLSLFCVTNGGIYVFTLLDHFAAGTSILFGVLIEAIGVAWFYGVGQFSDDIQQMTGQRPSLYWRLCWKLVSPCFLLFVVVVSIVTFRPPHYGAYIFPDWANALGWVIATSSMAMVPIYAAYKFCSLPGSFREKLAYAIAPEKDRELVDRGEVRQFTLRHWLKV
hERG, sequence (Q12809 whole entry): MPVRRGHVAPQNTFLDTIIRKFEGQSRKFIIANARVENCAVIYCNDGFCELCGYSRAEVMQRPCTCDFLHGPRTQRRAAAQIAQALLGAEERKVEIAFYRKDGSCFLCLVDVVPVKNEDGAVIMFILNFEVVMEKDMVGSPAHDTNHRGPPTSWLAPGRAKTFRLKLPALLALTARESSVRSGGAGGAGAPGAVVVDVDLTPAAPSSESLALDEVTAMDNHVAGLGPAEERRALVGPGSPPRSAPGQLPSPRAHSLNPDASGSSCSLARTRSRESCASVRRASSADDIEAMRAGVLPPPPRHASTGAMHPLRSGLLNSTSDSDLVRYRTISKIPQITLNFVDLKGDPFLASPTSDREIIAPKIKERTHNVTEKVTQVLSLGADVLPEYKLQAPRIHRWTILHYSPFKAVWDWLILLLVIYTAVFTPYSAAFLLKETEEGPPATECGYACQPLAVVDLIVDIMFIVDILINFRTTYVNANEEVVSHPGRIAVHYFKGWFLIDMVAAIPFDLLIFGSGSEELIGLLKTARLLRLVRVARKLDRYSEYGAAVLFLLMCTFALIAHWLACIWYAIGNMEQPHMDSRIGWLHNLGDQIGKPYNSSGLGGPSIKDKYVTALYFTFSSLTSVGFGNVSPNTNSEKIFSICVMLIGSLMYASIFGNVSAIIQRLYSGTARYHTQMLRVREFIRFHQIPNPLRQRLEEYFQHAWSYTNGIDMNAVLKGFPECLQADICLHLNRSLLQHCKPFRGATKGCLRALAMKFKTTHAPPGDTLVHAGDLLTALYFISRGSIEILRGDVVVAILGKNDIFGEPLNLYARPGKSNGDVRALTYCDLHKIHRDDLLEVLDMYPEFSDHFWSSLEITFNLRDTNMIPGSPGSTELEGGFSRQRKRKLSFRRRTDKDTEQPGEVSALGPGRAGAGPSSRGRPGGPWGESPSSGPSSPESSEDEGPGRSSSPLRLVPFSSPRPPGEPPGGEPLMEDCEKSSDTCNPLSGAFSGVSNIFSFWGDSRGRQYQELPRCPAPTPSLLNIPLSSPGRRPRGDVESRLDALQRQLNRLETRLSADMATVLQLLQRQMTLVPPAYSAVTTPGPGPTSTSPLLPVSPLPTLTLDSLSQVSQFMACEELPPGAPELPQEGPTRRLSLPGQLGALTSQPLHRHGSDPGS
human serotonin transporter, sequence (P31645 whole entry): as the sequence (P31645 whole entry) above
T5 sequence (P23977 whole entry): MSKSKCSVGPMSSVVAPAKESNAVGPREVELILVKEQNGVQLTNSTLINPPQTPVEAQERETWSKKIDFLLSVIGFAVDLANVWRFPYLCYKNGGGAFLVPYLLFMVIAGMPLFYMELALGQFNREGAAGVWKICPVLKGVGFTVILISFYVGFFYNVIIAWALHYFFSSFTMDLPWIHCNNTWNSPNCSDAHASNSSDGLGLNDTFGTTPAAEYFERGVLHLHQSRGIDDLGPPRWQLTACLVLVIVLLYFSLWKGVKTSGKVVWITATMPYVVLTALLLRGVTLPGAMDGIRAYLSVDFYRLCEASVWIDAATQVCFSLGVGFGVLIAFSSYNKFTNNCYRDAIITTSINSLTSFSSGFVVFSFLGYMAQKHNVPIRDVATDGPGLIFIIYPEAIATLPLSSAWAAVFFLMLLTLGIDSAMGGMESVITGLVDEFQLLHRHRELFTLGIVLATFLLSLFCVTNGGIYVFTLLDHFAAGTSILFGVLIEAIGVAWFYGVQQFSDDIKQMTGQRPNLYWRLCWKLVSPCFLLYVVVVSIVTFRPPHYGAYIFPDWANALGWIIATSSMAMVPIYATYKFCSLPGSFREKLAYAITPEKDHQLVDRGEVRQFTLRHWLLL
T7 sequence (P10635 whole entry): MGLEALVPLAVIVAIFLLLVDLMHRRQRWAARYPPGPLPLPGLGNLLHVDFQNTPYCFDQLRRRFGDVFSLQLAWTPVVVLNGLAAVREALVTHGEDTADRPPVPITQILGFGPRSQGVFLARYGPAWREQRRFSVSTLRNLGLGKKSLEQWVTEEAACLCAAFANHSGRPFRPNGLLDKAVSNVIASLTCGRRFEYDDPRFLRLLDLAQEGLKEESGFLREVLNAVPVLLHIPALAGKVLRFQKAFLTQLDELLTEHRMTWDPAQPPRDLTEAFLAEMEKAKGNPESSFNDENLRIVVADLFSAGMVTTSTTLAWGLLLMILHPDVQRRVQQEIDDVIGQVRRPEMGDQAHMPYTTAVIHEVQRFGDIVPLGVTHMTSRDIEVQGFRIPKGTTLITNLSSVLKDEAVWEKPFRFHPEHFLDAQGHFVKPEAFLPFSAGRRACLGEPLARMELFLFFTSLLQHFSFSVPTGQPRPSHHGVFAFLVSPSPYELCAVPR
T4 sequence (Q63380 1-617): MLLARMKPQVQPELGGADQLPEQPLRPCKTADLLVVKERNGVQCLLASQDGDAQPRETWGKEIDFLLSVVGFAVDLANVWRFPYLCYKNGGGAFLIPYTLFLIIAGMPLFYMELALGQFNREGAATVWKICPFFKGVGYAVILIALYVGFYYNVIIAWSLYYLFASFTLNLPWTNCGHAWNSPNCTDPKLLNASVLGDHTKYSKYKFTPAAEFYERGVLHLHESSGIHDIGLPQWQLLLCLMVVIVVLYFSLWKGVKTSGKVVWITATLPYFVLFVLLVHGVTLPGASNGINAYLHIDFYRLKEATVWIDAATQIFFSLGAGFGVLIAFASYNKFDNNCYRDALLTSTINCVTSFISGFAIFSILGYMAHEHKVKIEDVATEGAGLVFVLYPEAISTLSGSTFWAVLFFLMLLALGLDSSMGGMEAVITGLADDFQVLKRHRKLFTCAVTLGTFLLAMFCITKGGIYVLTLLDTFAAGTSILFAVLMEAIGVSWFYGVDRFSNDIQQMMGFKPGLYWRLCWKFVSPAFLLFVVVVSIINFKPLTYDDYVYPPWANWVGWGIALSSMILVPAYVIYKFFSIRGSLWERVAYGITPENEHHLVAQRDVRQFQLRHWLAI
human dopamine transporter, sequence (Q01959 whole entry): as the sequence (Q01959 whole entry) above

## CNCC(c1ccc2ccccc2c1)C(OC)c1ccccc1 (racemic) [MCJ001-OMe-(±)-SR, (2R,3S/2S,3R)-3-methoxy-N-methyl-2-(naphthalen-2-yl)-3-phenylpropan-1-amine]
[1]; Geometric Mean ± SEM, HCl salts, read-out: Equilibrium Dissociation Constant (KD) for Transporter Binding, hSERT (S)
  Kd: 710 ± 50 nM
[2]; Geometric Mean ± SEM, HCl salts, read-out: Equilibrium Dissociation Constant (KD) for Transporter Binding, hDAT (D)
  Kd: 600 ± 100 nM
hSERT, hNET, hDAT
  Potency (rank-order of potency of binding; S = hSERT, N = hNET, D = hDAT): N = D > S
  Potency Range (difference between most potent and least potent binding): 1.2 fold
[3]
  Potency (rank order, transport into cells expressing human transporters): N > S > D
[4]
  Ki: 90 ± 36 nM
[5]
  Ki: 210 ± 30 nM
[6]
  Ki: 1030 ± 30 nM
[7]
  Potency (rank order, transport into rat brain synaptosomal preparations): S > N > D
[8]
  Ki: 20 ± 1 nM
[9]
  Ki: 2400 nM
[10]
  Ki: 60 ± 7 nM

## CNC[C@H](c1ccc2ccccc2c1)[C@H](F)c1ccccc1 [MCJ001-F-SS, (2S,3S)-3-fluoro-N-methyl-2-(naphthalen-2-yl)-3-phenylpropan-1-amine]
[1]
  Kd: 0.82 ± 0.09 nM
[1]; in words
  Binding at hSERT compared to PRC200-SS: greater binding at hSERT
[11]
  Kd: 1.3 ± 0.2 nM
[2]
  Kd: 23.5 ± 0.9 nM
[2]; in words
  Binding at hDAT compared to PRC200-SS: Enhanced binding to hDAT
hSERT, hNET, hDAT
  Potency (rank-order of potency of binding; S = hSERT, N = hNET, D = hDAT): S > N > D
  Potency Range (difference between most potent and least potent binding): 29 fold
CYP2D6
  IC50: 60 nM
hERG
  IC50: 51800 nM
hERG; in words
  Blocking of hERG channel compared with PRC200-SS: weaker than PRC200-SS at blocking this channel
Male Sprague-Dawley rats
  Immobility in forced swim test vs saline: statistically (P<0.04) less immobility
  Swimming in forced swim test vs saline: statistically (P<0.04) more swimming behavior
Male Sprague-Dawley rats; FIG. 12A
  Antidepressant activity in forced swim test compared with imipramine (15 mg/kg IP): antidepressant activity that was similar to that observed in rats treated with the positive control
